Test results taken from ChEMBL document CHEMBL1201862, “PubChem BioAssay data set” (2004).
Calls of active or inactive are those of the source. Rule as the data show it, for most assays here: actives have a measured EC50 and inactives only a lower limit.

Legend:
[1] = NIH3T3 cell viability loss – ATP luminescence, mouse fibroblasts, counter-screen, dose response (AID 2010); assay type: functional, cell-based;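 also: cells exposed to compound for about 90 hours before reading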
[2] = Trypanosoma cruzi growth suppression in host cells – NIH3T3 host cells, beta-gal luminescence, confirmation (AID 2044); assay type: functional, cell-based;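 also: intracellular parasites grown in NIH/3T3 mouse fibroblasts as host cells; luminescent beta-galactosidase reporter signal from transgenic T. cruzi replicating inside host cells; inhibitors lower the luminescence signal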
[3] = target: Cytochrome P450 3A4 (Homo sapiens, UniProt P08684);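 also: CYP3A4 tested as one member of a cytochrome P450 panel screen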
[4] = tested on: INS1; assay: INS-1E survival protection against cytokine death – cell-based, luminescence, retest, dose response (AID 449756); assay type: functional; settings: Rattus norvegicus, INS1;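 also: cell death triggered by IL-1 beta plus TNF-alpha plus IFN-gamma mixture; protective hits raise ATP signal compared with cytokine alone wells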
[5] = target: T1, Cytochrome P450 1A2 (Homo sapiens, UniProt P05177);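 also: PubChem cytochrome P450 panel assay, CYP1A2 panel member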
T1 sequence (P05177 whole entry): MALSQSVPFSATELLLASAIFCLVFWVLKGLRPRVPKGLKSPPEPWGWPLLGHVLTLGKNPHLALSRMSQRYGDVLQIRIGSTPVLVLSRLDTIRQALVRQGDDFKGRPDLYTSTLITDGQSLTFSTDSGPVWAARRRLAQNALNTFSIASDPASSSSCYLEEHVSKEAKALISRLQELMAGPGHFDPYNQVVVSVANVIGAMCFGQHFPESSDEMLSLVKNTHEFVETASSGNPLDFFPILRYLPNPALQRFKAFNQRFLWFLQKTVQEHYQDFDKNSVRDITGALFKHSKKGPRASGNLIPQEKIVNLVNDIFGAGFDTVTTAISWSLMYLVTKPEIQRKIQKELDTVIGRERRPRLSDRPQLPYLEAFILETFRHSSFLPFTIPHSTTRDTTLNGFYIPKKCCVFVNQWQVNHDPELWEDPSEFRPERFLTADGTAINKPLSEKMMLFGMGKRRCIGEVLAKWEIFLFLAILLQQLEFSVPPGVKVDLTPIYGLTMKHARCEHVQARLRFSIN

[6] = target: T2, RNA-binding protein pos-1 (Caenorhabditis elegans, UniProt G5EF15); assay: disruptors of C. elegans POS-1 RNA interaction – biochemical, fluorescence polarization, dose response (AID 1964);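 also: purified POS-1 fused to maltose binding protein made in E. coli; potency of compounds blocking POS-1 binding to fluorescent RNA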
T2 sequence (G5EF15 whole entry): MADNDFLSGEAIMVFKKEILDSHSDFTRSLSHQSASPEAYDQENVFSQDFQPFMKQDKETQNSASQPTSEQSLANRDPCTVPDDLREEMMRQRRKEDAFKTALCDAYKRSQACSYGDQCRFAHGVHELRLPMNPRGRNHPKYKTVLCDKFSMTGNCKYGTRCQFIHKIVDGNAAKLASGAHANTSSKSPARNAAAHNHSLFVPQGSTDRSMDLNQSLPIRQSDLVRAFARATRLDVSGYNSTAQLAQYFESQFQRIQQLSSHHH

[7] = target: T3, Zinc finger protein mex-5 (Caenorhabditis elegans, UniProt Q9XUB2); assay: potency of MEX-5 RNA-binding blockers – biochemical, C. elegans, fluorescence polarization, dose response (AID 1960)
T3 sequence (Q9XUB2 whole entry): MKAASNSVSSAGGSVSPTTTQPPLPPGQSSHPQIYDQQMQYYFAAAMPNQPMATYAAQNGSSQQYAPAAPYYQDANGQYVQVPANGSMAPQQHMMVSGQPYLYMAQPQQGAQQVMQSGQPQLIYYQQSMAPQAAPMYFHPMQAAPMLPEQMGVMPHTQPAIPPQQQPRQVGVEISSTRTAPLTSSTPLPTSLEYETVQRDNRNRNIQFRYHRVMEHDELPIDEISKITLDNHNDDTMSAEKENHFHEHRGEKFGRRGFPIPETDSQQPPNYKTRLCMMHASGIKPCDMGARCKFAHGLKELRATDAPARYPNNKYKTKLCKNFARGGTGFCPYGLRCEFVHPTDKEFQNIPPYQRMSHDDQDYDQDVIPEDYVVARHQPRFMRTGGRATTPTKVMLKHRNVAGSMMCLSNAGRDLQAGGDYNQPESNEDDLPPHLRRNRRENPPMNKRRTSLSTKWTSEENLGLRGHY

[8] = target: T4, Corticotropin-releasing factor receptor 2/Corticotropin-releasing factor-binding protein (Homo sapiens, UniProt P24387+Q13324); assay: activators of CRF receptor 2 with binding protein – uHTS hits, confirmation (AID 602473); assay type: functional; settings: read-out: EC50_Mean
T4 sequence (Q13324 whole entry): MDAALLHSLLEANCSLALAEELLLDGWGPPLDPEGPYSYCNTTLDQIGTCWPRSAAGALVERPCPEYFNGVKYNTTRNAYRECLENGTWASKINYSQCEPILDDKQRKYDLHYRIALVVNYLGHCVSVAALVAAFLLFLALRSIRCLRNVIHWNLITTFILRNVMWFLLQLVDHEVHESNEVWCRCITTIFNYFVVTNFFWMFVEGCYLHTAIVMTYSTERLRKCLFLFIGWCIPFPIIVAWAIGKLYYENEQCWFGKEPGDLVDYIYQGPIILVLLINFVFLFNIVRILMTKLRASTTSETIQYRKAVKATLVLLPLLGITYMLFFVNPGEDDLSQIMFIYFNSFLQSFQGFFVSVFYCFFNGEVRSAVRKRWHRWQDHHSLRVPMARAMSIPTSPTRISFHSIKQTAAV
T4 sequence (P24387 whole entry): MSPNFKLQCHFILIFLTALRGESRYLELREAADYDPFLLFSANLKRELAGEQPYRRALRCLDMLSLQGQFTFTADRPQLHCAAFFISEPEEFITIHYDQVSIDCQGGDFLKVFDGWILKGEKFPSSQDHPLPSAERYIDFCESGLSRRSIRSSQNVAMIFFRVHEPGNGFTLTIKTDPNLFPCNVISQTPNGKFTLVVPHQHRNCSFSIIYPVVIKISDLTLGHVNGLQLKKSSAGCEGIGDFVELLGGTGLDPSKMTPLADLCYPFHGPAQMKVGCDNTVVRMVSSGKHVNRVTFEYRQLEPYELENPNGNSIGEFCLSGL

[9] = tested on: Streptococcus sp. 'group A'; assay: Streptococcus pyogenes SK(-)GAS viability under kanamycin – luminescence, BacTiterGlo, confirmation, counter-screen for streptokinase expression inhibitor project, dose response (AID 1900); assay type: functional, organism-based
[10] = tested on: Streptococcus; assay: GAS UMAA2166 growth inhibition – luminescence, BacTiterGlo, counter-screen for streptokinase expression inhibitor project, dose response (AID 1915); assay type: functional, organism-based;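 also: potency for reduction of bacterial viability or growth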
[11] = Luminescence Cell-Based Dose Response HTS to Identify Activators of Luciferase Translation or Activity in H4 […] Cells. [Related pubchem assays: 1829 (Project Summary), 1814 (Primary HTS)]; assay type: functional

Cytochrome P450 3A4, sequence (P08684 whole entry): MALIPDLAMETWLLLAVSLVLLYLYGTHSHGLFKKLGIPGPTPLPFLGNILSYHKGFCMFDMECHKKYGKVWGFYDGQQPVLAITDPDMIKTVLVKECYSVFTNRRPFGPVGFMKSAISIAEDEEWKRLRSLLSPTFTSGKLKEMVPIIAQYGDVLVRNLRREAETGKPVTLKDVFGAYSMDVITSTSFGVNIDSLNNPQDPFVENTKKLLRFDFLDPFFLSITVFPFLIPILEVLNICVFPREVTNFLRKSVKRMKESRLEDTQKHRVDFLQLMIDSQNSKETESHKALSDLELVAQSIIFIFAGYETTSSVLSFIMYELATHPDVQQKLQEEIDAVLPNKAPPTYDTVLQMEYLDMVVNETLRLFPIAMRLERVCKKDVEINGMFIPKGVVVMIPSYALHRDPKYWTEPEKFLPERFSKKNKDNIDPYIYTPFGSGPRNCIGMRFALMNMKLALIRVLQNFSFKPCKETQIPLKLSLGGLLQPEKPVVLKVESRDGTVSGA

SMILES: COCCn1c(SCC(=O)NC(=O)NCc2ccccc2)nc2ccccc21
- EC50 [1]: > 60 µM (not active)
- EC50 [2]: 1.14 µM (active)

SMILES: O=C(Nc1cccc(-c2cn3cccnc3n2)c1)c1ccco1
- EC50 [1]: > 30 µM (not active)
- EC50 [2]: 0.941 µM (active)
- AC50 [3]: 25.1 µM (inconclusive)

SMILES: CN1CCCC2(CCN(C(=O)c3cnccn3)CC2)C1
- AC50 [3]: 25.1 µM (inconclusive)

SMILES: COc1ccccc1CN1C[C@@H]2C[C@@H](c3ccc(C)c(C)c3)N3CCC[C@@]23C1=O
- EC50 [1]: > 30 µM (not active)
- EC50 [2]: 2.26 µM (active)

SMILES: O=C(NCc1cccnc1)c1sc2cc(Cl)ccc2c1Cl
- AC50 [3]: 0.891 µM (inconclusive)

SMILES: COc1ccc(Cl)c(Cn2c(NCc3ccco3)nc3c2c(=O)n(C)c(=O)n3C)c1
- AC50 [4]: 3.27 µM (active)

SMILES: COc1ccc(N(C)S(=O)(=O)c2ccc3c(c2)CCC(=O)N3)cc1
- AC50 [5]: 0.01 µM (inconclusive)
- AC50 [3]: 3.55 µM (inconclusive)

SMILES: CC(C)Cc1ccc(CN2CCC(n3nccc3NC(=O)C3CCCC3)CC2)cc1
- EC50 [1]: > 60 µM (not active)
- EC50 [2]: 0.313 µM (active)

SMILES: Cc1ccc(-c2cnc(NC(=O)CCC(=O)N(C)Cc3ccccc3)n2C)cc1
- AC50 [4]: 21.3 µM (active)

SMILES: CCN1C(=O)[C@H]2[C@@H](c3ccc(-c4cccc(Cl)c4)cc3)N[C@@](Cc3ccccc3)(C(=O)OC)[C@H]2C1=O
- EC50 [1]: 14.6 µM (active)
- EC50 [2]: 2.06 µM (active)

SMILES: N#Cc1ccc(CN2CC[C@@]3(CCCNC3)C2)cc1
- AC50 [5]: 25.1 µM (inconclusive)
- AC50 [3]: 31.6 µM (inconclusive)

SMILES: COCCNC(=O)CSc1nc2ccc(N3CCOCC3)cc2c(=O)n1Cc1ccc(OC)cc1
- AC50 [5]: 15.8 µM (inconclusive)

SMILES: O=C(Nc1ccc(F)cc1F)N1CCCCC1c1cccnc1 (stereo unspecified)
- EC50 [1]: > 60 µM (not active)
- EC50 [2]: 0.654 µM (active)

SMILES: COc1cc(OC)cc(C(=O)Nn2cc(C(=O)N3CCN(C)CC3)c3ccccc3c2=O)c1
- AC50 [5]: 10 µM (inconclusive)
- AC50 [3]: 28.2 µM (inconclusive)

SMILES: COc1ccc(-c2c[n+](-c3ccc(Cl)cc3)c3n2CCCCC3)cc1
- EC50 [1]: > 60 µM (not active)
- AC50 [4]: 2.16 µM (active)
- EC50 [2]: 0.781 µM (active)

SMILES: CC(CN1CCN(C)CC1)OC(=O)c1ccc(Cl)cc1 (stereo unspecified)
- EC50 [1]: > 60 µM (not active)
- EC50 [2]: 0.606 µM (active)

SMILES: C=C(C)CSc1nc2sc3c(c2c(=O)n1-c1ccccc1)CCN(C)C3
- EC50 [1]: > 30 µM (not active)
- EC50 [2]: 0.197 µM (active)

SMILES: CCN(CC(=O)Nc1ccc(NC(C)=O)cc1)C(=O)CCCOc1ccc(C(C)(C)C)cc1
- AC50 [4]: 23.7 µM (active)

SMILES: CC(C)[C@H](Sc1nc(N)nc2[nH]cnc12)C(=O)O
- AC50 [5]: 0.316 µM (inconclusive)

SMILES: CCC(C)n1c(=N)c(C#N)cc2c(=O)n3cccc(C)c3nc21 (stereo unspecified)
- EC50 [6]: 296 µM (active)
- EC50 [7]: 21.5 µM (inconclusive)

SMILES: COc1ccc(-c2nc3cnc(N4CCN(C)CC4)nc3n(C)c2=O)cc1
- AC50 [5]: 25.1 µM (inconclusive)

SMILES: CCN(CC)CCN1c2ccccc2Sc2ccc3ccccc3c21
- AC50 [4]: 14 µM (active)

SMILES: O=C(CCn1c2c(c3ccccc31)CCCC2)NNC(=O)c1ccccc1C(=O)O
- EC50 [8]: 7.66 µM (active)

SMILES: CCOC(=O)c1cc(CC)sc1NC=C1C(=O)NC(=S)NC1=O
- EC50 [6]: > 300 µM (not active)
- EC50 [7]: 15 µM (active)

SMILES: COc1ccc(C2c3ccc(O)cc3Oc3ncn(Cc4ccco4)c(=N)c32)cc1OC (stereo unspecified)
- EC50 [6]: > 300 µM (not active)
- EC50 [7]: > 300 µM (not active)

SMILES: COc1cccc(F)c1C(=O)NC(=O)Nc1ccc2nc(C)oc2c1
- EC50 [6]: 17.8 µM (active)
- EC50 [7]: 17.4 µM (active)

SMILES: COc1ccc(C2=NOC(CN=C(N)S)C2)cc1 (stereo unspecified)
- EC50 [9]: 3.77 µM (active)
- EC50 [10]: 10.9 µM (active)

SMILES: CC(C)(C)C(=O)Nc1ccnc(-c2cccnc2)n1
- AC50 [3]: 2.51 µM (inconclusive)

SMILES: O=C(CCN1CCN(Cc2ccccc2)CC1)Nc1cccc(Cl)c1
- EC50 [1]: > 60 µM (not active)
- EC50 [2]: 0.965 µM (active)

SMILES: CCOC(=O)Cc1ccc(NCc2ccc(Cl)cc2)cc1
- EC50 [1]: > 30 µM (not active)
- EC50 [2]: 1.47 µM (active)

SMILES: CCc1noc(C)c1C(=O)N1CCCC(C(=O)c2cc(F)ccc2OC)C1 (stereo unspecified)
- EC50 [1]: > 60 µM (not active)
- EC50 [2]: 9.23 µM (active)

SMILES: COc1ccc(Nc2ncnc3c2oc2ccccc23)cc1
- EC50 [11]: 7.34 µM (active)

SMILES: O=C(C1CCCN(Cc2cccc(Cl)c2)C1)N1CCCCC1 (stereo unspecified)
- EC50 [1]: > 30 µM (not active)
- EC50 [2]: 0.167 µM (active)

SMILES: O=C(CN1CCC(C(O)(c2ccccc2)c2ccccc2)CC1)Nc1cc(Cl)ccc1Cl
- EC50 [1]: 9.41 µM (active)
- EC50 [2]: 1.38 µM (active)

SMILES: Cc1ccc(NC(=O)CCS(=O)(=O)c2cc3c(cc2Cl)NC(=O)CO3)cc1
- EC50 [6]: > 300 µM (not active)
- EC50 [7]: > 300 µM (not active)

SMILES: Cc1ccc(S(=O)(=O)c2ccccc2)cc1S
- EC50 [1]: > 30 µM (not active)
- EC50 [2]: 0.983 µM (active)

SMILES: COc1cccc2c(=O)n(CC(=O)N3CCc4ccccc43)ccc12
- EC50 [8]: > 53 µM (inactive)

SMILES: CCOc1ccc(N2C(=O)NC(=O)/C(=C\Nc3ccc(N4CCOCC4)cc3)C2=O)cc1
- EC50 [6]: 17.6 µM (inconclusive)
- EC50 [7]: 60.4 µM (inconclusive)

SMILES: CC(=O)N1CCN(C(=O)CC2OC(=O)c3ccccc32)CC1 (stereo unspecified)
- AC50 [5]: 22.4 µM (inconclusive)

SMILES: CCC(CO)Oc1cc(NCc2ccc(C(C)(C)C)cc2)c2ncn(C(C)C)c2c1 (stereo unspecified)
- AC50 [4]: 3.07 µM (active)

SMILES: Cc1ccc(OC[C@H](O)[C@H](C)NC(C)C)c2c1CCC2
- AC50 [3]: 31.6 µM (inconclusive)

SMILES: Clc1cc(-c2ccc(/C=N/n3cnnc3)o2)ccc1Br
- EC50 [6]: 59.4 µM (active)
- EC50 [7]: 81.6 µM (active)

SMILES: CC(C)OCCCn1/c(=N/C(=O)c2cccs2)c(C#N)cc2c(=O)n3ccccc3nc21
- EC50 [6]: > 300 µM (not active)
- EC50 [7]: > 300 µM (not active)

SMILES: CCOc1cc(/C=N/NC(=O)c2cc(-c3cccc(OC)c3)nc3ccccc23)ccc1O
- AC50 [4]: 8.15 µM (active)

SMILES: O=C(CN1CCOCC1)N/N=C/c1c(O)ccc2ccccc12
- AC50 [4]: 4.87 µM (active)

SMILES: O=C(O)c1ccccc1C(=O)Nc1cc2c(cc1Br)-c1ccccc1C2=O
- AC50 [5]: 0.631 µM (inconclusive)

SMILES: COc1ccc(CCNC[C@H](O)c2ccc(O)cc2)cc1OC [DENOPAMINE]
- AC50 [3]: 25.1 µM (inconclusive)
